In patent US9440097B2, “Organic compounds” (Givaudan SA, priority 2005, dated 2016):
Read-outs that look alike come from different tables or passages of the source.

System: PGE2 formation in normal human epidermal keratinocytes (NHEK)
Test: Inhibition of PGE2 formation in irritated keratinocyte cultures (PGE2 immunoassay)
Type: cell-based
Settings: 24 h; for inhibition at 50 µM: Homo sapiens, NHEK, read-out: relative inhibition in % of PGE2 formation in keratinocyte cultures at 50 μM; for relative inhibition in % of PGE2 formation in keratinocyte cultures at μM: column head prints only 'μM' (method: 50 μM or 10 μM), calcimycin 2.5 μM
Experimental: A confluent culture was trypsinated and adjusted to a density of 5×10^4 cells/ml. The cells were then seeded in the same medium but with only 1% fetal calf serum in 24 well plates and cultivated for a period of 48 h. A model irritating agent was then applied to the cells by adding calcimycin to a final level of 2.5 μM. The individual compounds, as listed below, dissolved in DMSO were added simultaneously. The final concentration of the compounds was 50 μM or 10 μM, the final DMSO concentration was adjusted to 1% (v/v). Parallel treatments received no calcimycin (non-irritated control) or calcimycin without compounds according to the present invention (irritated control). The DMSO concentration was adjusted to 1% in all these control treatments. […] The prostaglandin levels in treated cell cultures were compared to the irritated and non-irritated control cultures in order to determine the relative inhibition of PGE2 formation.

[1] = 50 μM compound, irritated with calcimycin 2.5 μM, 1% DMSO

| SMILES | inhibition at 50 µM [1] | relative inhibition in % of PGE2 formation in keratinocyte cultures at μM (1% DMSO) | inhibition at 50 µM |
| --- | --- | --- | --- |
| CC=C(C)C(=O)OCc1ccccc1 [TIGLATE BENZYLE, benzyl 2-methylbut-2-enoate] | 72.4% | 50.2% |  |
| O=C(OC1CCCCC1)c1ccccc1O [Cyclohexyl salicylate, cyclohexyl 2-hydroxybenzoate] | 97.4% | 76.6% |  |
| O=C(OCCc1ccccc1)c1ccccc1O [Phenethyl salicylate] | 50.9% |  |  |
| CCC(C)C(=O)OCCc1ccccc1 (stereo not drawn) [ANATOLYL ™, phenethyl 2-methylbutanoate] | 50.5% |  |  |
| N#CC(=C1CCCC1)c1ccccc1 [2-Cyclopentylidene-2-phenylacetonitrile] | 80.8% | 71.1% |  |
| CC(C)COC(=O)c1ccccc1 [Isobutyl benzoate] | 52.5% |  |  |
| CC/C=C\CCOC(=O)c1ccccc1O [cis-3-Hexen-1-yl salicylate] | 94.8% | 81.4% |  |
| CC(C)(C)c1ccc(CCC=O)cc1 [BOURGEONAL ™, 3-(4-tert-butylphenyl)propanal] | 65% |  |  |
| CCCCCCCC1CCCC1=O (stereo not drawn) [ALISMONE ™, 2-heptylcyclopentanone] | 92.4% | 47% |  |
| COc1ccc(CC2CC2)cc1 [TOSCANOL ®, 1-(cyclopropylmethyl)-4-methoxybenzene] | 56.7% |  |  |
| N#CC(=C1CCCCC1)c1ccccc1 [PEONILE ®, 2-cyclohexylidene-2-phenylacetonitrile] | 93.3% | 92.4% |  |
| CC(C)C(=O)OCCc1ccccc1 [Phenethyl isobutyrate] | 44.8% |  |  |
| CC=Cc1ccc(OC)cc1 [ANETHOLE, 1-methoxy-4-(prop-1-enyl)benzene] | 51% |  |  |
| CCOc1cc(COC(C)C)ccc1O [PROPYL DIANTILIS, 2-Ethoxy-4-(isopropoxymethyl)phenol] |  | 95.1% | 90.9% |
| O=C(C=Cc1ccccc1)OCC=Cc1ccccc1 [Cinnamyl cinnamate] | 64% |  |  |
| CCCCCCOC(=O)c1ccccc1O [n-Hexyl salicylate] | 82.9% | 91.6% |  |
| CC(C=O)Cc1ccc(C(C)C)cc1 (stereo not drawn) [CYCLAMEN ALDEHYDE ™, 2-Methyl-3-(4-isopropylphenyl)propanal] | 82% | 32% |  |
| CC(C)COC(=O)c1ccccc1O [Isobutyl salicylate, isobutyl 2-hydroxybenzoate] | 69.1% | 73.1% |  |
| CCOc1cc(COC)ccc1O [METHYL DIANTILIS ®, 2-Ethoxy-4-(methoxymethyl)phenol] |  | 88.2% |  |
| CCC(CC)=C(C#N)c1ccccc1 [3-Ethyl-2-phenylpent-2-enenitrile] | 73.2% | 63.9% |  |
| CCCCCOC(=O)c1ccccc1O [Amyl salicylate, pentyl 2-hydroxybenzoate] | 89.8% | 73.5% |  |
| O=C(OCCc1ccccc1)c1ccccc1 [Phenethyl benzoate] | 92.4% | 56.9% |  |
| CC(C)(C)C(=O)OCCc1ccccc1 [CENTIFOLYL ™, phenethyl pivalate] | 39% |  |  |
| CC(=O)OCC=Cc1ccccc1 [Cinnamyl acetate] | 47.8% |  |  |
| O=C(C=Cc1ccccc1)OCCc1ccccc1 [Phenethyl cinnamate] | 91.7% | 93.6% |  |
| CC(C)Cc1ccc(CC(C)C=O)cc1 (stereo not drawn) [SILVIAL ®, 2-Methyl-3-(4-(2-methylpropyl)phenyl)propanal] | 62.7% |  |  |
| CCOc1ccc2ccccc2c1 [NEROLINE ™ CRIST, 2-ethoxynaphthalene] | 83% | 50.2% |  |
